The target of one experiment is T1, HDAC7 (Homo sapiens, UniProt Q8WUI4).
T1 sequence (Q8WUI4 1-952): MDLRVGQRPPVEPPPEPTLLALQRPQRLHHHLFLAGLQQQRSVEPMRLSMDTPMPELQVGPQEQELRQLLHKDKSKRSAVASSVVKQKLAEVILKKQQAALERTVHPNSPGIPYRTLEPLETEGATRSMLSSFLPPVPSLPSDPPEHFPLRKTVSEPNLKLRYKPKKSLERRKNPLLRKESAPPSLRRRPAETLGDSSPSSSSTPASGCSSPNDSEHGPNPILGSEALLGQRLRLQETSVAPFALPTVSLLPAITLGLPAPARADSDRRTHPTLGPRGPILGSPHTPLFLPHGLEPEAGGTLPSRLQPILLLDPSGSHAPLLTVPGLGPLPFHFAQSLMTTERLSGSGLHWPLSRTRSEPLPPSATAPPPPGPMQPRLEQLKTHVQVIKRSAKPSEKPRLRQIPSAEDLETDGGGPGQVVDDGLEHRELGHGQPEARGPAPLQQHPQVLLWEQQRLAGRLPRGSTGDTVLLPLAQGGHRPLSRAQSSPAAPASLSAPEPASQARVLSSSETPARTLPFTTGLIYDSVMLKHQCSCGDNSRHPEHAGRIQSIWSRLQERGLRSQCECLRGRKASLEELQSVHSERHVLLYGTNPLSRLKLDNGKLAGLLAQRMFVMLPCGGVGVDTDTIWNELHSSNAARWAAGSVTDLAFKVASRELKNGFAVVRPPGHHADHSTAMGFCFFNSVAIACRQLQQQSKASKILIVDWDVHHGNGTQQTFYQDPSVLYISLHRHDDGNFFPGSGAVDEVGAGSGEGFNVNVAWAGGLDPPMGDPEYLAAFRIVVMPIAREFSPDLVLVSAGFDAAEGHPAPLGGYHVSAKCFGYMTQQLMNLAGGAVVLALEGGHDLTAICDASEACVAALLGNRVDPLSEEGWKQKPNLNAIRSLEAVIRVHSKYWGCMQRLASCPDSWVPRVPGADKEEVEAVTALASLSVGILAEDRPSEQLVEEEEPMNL
Kind of experiment: HDAC biochemical activity measurement (fluorescent substrate deacetylation).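 Further: fluorogenic deacetylation assay using acetyl-lysine substrate at 20 µM, enzyme and compound incubated 30 min at 37 °C, then developer added, fluorescence read at 360/460 nm.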 Conditions: HDAC7; 37° C. 30 minutes.

Experiment [1] concerns U937 (human leukemia cells). Kind of experiment: MTT cancer cell growth inhibition. The format is cell-based. Conditions: MTT, 72 hours incubation, read-out: GI50 U93. An excerpt: (§1) MTT assay principle is yellow MTT can penetrate membrane into the cell, succinic dehydrogenase of the mitochondria in living cells can make exogenous MTT reduction of insoluble in water of blue-violet acicular formazan for crystallization and deposition in the cell, crystallization can be dissolved dimethyl sulfoxide (DMSO) solution, detected its absorbance at 490 nm/570 nm wavelength by enzyme-linked immunosorbent assay, which can reflect the number of cells.
(§2) Using DMEM+10% FBS culture medium or using 1640+10% FBS culture, respectively.
(§3) a) Cells were seeded in 96-well plates with the inoculation of 1500/well, 190 μl/hole, 37° C., 5% of CO2 incubator overnight;
(§4) b) The next day each well was added 10 μl of different drugs. The final concentration of drug was 10^−5˜10^−10M, three parallel holes; 37° C., 5% CO2 culture incubator for 72 hours incubation;
(§5) c) Per well was added 20 μl 5 mg/ml of MTT, 37° C., 5% CO2 culture incubator for 4 hours incubation;
(§6) d) The supernatant was discarded. Each well was added 100 μl of DMSO and oscillation;
(§7) e) 570 nm readings. Calculate cell viability. GI50 calculation based on the results.

In experiment [2] the test system is HCC827 (human non-small cell lung cancer cells). Kind of experiment: MTT cancer cell growth inhibition. The class given is cell-based. The note with it: MTT, 72 hours incubation, HCC827 cells, read-out: GI50 HCC827.
From the text: as §1, §2, §3, §4, §5, §6, §7

In experiment [3] the test system is PANC-1 (Pac-1, human pancreatic cancer cells). Kind of experiment: MTT cancer cell growth inhibition. The format is cell-based. Conditions: MTT, 72 hours incubation, read-out: GI50 PAN.
From the text: as §1, §2, §3, §4, §5, §6, §7

For experiment [4], the system named is KBM-5 (human chronic myelogenous leukemia). Kind of experiment: MTT cancer cell growth inhibition. The class given is cell-based. The note with it: MTT, 72 hours incubation, KBM-5 cells, read-out: GI50 KBM-5.
From the text: as §1, §2, §3, §4, §5, §6, §7

For experiment [5], the system named is H1975 (non-small cell lung adenocarcinoma). Kind of experiment: MTT cancer cell growth inhibition. The format is cell-based. Conditions: MTT, 72 hours incubation, H1975 cells, read-out: GI50 H1975.
From the text: as §1, §2, §3, §4, §5, §6, §7

The test system of experiment [6] is Hela (human cervical cancer cells). Kind of experiment: MTT cancer cell growth inhibition. Conditions: MTT, 72 hours incubation, read-out: GI50 Hela. The class given is cell-based.
From the text: as §1, §2, §3, §4, §5, §6, §7

Experiment [7] concerns K562 (human leukemia cells). Kind of experiment: MTT cancer cell growth inhibition. The class given is cell-based. Conditions: MTT, 72 hours incubation, K562 cells, read-out: GI50 K562.
From the text: as §1, §2, §3, §4, §5, §6, §7

The subject of experiment [8] is A549 (human lung cancer cells). Kind of experiment: MTT cancer cell growth inhibition. The format is cell-based. Conditions: MTT, 72 hours incubation, read-out: GI50 A54.
From the text: as §1, §2, §3, §4, §5, §6, §7

In experiment [9] the test system is lncap (prostate cancer cells). Kind of experiment: MTT cancer cell growth inhibition. The class given is cell-based. Conditions: MTT, 72 hours incubation, read-out: GI50 lnca.
From the text: as §1, §2, §3, §4, §5, §6, §7

Experiment [10] deals with Bel-7402 (human hepatoma cells). Kind of experiment: MTT cancer cell growth inhibition. The class given is cell-based. Conditions: MTT, 72 hours incubation, Bel-7402 cells, read-out: GI50 Bel-7402.
From the text: as §1, §2, §3, §4, §5, §6, §7

The subject of experiment [11] is HT1080 (human fibrosarcoma cells). Kind of experiment: MTT cancer cell growth inhibition. The format is cell-based. Conditions: MTT, 72 hours incubation, read-out: GI50 HT1.
From the text: as §1, §2, §3, §4, §5, §6, §7

Experiment [12] deals with MDA-MB-231 (breast cancer cells). Kind of experiment: MTT cancer cell growth inhibition. The class given is cell-based.
From the text: as §1, §2, §3, §4, §5, §6, §7

Experiment [13] relates to KBM5-T315I (human chronic myelogenous leukemia). Kind of experiment: MTT cancer cell growth inhibition. The format is cell-based. Conditions: MTT, 72 hours incubation, KBM5-T315I cells, read-out: GI50 KBM5-T315I.
From the text: as §1, §2, §3, §4, §5, §6, §7

Experiment [14] deals with N-87 (human gastric cancer cells). Kind of experiment: MTT cancer cell growth inhibition. The class given is cell-based. The note with it: MTT, 72 hours incubation, N-87 cells, read-out: GI50 N-87.
From the text: as §1, §2, §3, §4, §5, §6, §7

Experiment [15] has as its system SGC-7901 (human gastric cancer cells). Kind of experiment: MTT cancer cell growth inhibition. The format is cell-based. The note with it: MTT, 72 hours incubation, SGC-7901 cells, read-out: GI50 SGC-7901.
From the text: as §1, §2, §3, §4, §5, §6, §7

For experiment [16], the system named is MCF-7 (human breast cancer cells). Kind of experiment: MTT cancer cell growth inhibition. The class given is cell-based. Conditions: 72 hours incubation, read-out: GI50 MCF.
From the text: as §1, §2, §3, §4, §5, §6, §7

Experiment [17] deals with MOLT-4 (human acute lymphoblastic leukemia cells). Kind of experiment: MTT cancer cell growth inhibition. The note with it: MTT, 72 hours incubation, read-out: GI50 Mol. The format is cell-based.
From the text: as §1, §2, §3, §4, §5, §6, §7

The subject of experiment [18] is DU145 (human prostate cancer cells). Kind of experiment: MTT cancer cell growth inhibition. The format is cell-based. Conditions: MTT, 72 hours incubation, read-out: GI50 Du1.
From the text: as §1, §2, §3, §4, §5, §6, §7

For experiment [19], the system named is Huh-7 (human hepatoma cells). Kind of experiment: MTT cancer cell growth inhibition. The class given is cell-based. Conditions: MTT, 72 hours incubation, Huh-7 cells, read-out: GI50 Huh-7.
From the text: as §1, §2, §3, §4, §5, §6, §7

The test system of experiment [20] is BGC-823 (human gastric cancer cells). Kind of experiment: MTT cancer cell growth inhibition. Conditions: MTT, 72 hours incubation, read-out: GI50 BG. The class given is cell-based.
From the text: as §1, §2, §3, §4, §5, §6, §7

Where [21] appears, read: read-out: GI50 MDA-MB-231, MTT, 72 hours incubation, MDA-MB-231 cells.

Structures are written as SMILES. Like-named read-outs stand apart in the source and are kept apart here.

Usually GI50 stands for the concentration at which growth is held to half of that of the control.

For `CSc1ccc2nc1C(=O)NC(=C(C)C)C(=O)N[C@@H](C(C)C)C(=O)O[C@H](/C=C/CCSC(C)=O)CC(=O)NC2` [Compound 207], the “IC50 HDAC7” value against HDAC7 is “no activity”. The GI50 in [1] (Homo sapiens, U-937, 72 h, U937 cells) was found to be 40 nM; in experiment [2] (Homo sapiens, HCC827, 72 h) it was 55 nM; in experiment [3] (Homo sapiens, PANC-1, 72 h, PANC-1 cells), 50 nM; in experiment [4] (Homo sapiens, KBM5, 72 h), 38 nM; in experiment [5] (Homo sapiens, NCI-H1975, 72 h) it was 46 nM; in experiment [6] (Homo sapiens, HeLa, 72 h, Hela cells), 20 nM. In addition, the GI50 worked out at 48 nM in [7] (Homo sapiens, K562, 72 h); 30 nM in [8] (Homo sapiens, A549, 72 h, A549 cells); 50 nM in [9] (Homo sapiens, LNCaP, 72 h, lncap cells); 27 nM in experiment [10] (Homo sapiens, Bel-7402, 72 h); 30 nM in experiment [11] (Homo sapiens, HT-1080, 72 h, HT1080 cells); 79 nM in experiment [12] (Homo sapiens, MDA-MB-231, 72 h, read-out: GI50 MDA-MB-231, MTT, 72 hours incubation, MDA-MB-231 cells). In addition, the GI50 was 21 nM in experiment [13] (Homo sapiens, 72 h); 19 nM in [14] (Homo sapiens, 72 h); 57 nM in experiment [15] (Homo sapiens, SGC-7901, 72 h); 40 nM in [16] (Homo sapiens, MCF7, 72 h, MCF-7 cells); 10 nM in experiment [17] (Homo sapiens, MOLT-4, 72 h, MOLT-4 cells); 30 nM in [18] (Homo sapiens, DU-145, 72 h, DU145 cells). Moreover, the GI50 stood at 33 nM in experiment [19] (Homo sapiens, Huh-7, 72 h) and 30 nM in experiment [20] (Homo sapiens, BGC-823, 72 h, BGC-823 cells).

Take `C=C1NC(=O)c2cc(F)cc(n2)CNC(=O)C[C@@H](/C=C/CCS)OC(=O)[C@H](C(C)C)NC1=O` [Compound 132]: the “IC50 HDAC7” value on HDAC7 is “no activity”. Moreover, the GI50 in experiment [1] (Homo sapiens, U-937, 72 h) was determined as 40 nM; in [2] (Homo sapiens, HCC827, 72 h) it was 52 nM; in [3] (Homo sapiens, PANC-1, 72 h) it was 70 nM; in experiment [4] (Homo sapiens, KBM5, 72 h) it was 24 nM; in experiment [5] (Homo sapiens, NCI-H1975, 72 h), 28 nM; in experiment [6] (Homo sapiens, HeLa, 72 h) it was 20 nM. The GI50 in experiment [7] was determined as 48 nM; in experiment [8] it was 20 nM; in experiment [9], 30 nM; in experiment [10], 77 nM; in experiment [11], 30 nM; in experiment [12] (setting [21]), 16 nM. For the same molecule, the GI50 was determined as 43 nM in experiment [13]; 57 nM in experiment [14] (Homo sapiens, 72 h); 28 nM in experiment [15] (Homo sapiens, SGC-7901, 72 h); 100 nM in experiment [16] (Homo sapiens, MCF7, 72 h); 30 nM in experiment [17]; 150 nM in experiment [18]. In addition, the GI50 in experiment [19] (Homo sapiens, Huh-7, 72 h) is 26 nM; in experiment [20] (Homo sapiens, BGC-823, 72 h), 40 nM.

On to `C/C=C1\NC(=O)c2ccc(SC)c(n2)CNC(=O)C[C@@H](/C=C/CCSC(C)=O)OC(=O)[C@H](C(C)C)NC1=O` [Compound 209], for which, on HDAC7, the “IC50 HDAC7” value is “no activity”. The GI50 in experiment [1] (U937 cells) worked out at 30 nM; in [2], 85 nM; in [3] (PANC-1 cells), 20 nM; in experiment [4], 46 nM; in [5], 17 nM; in experiment [6] (Hela cells), 90 nM. The concentration for 50% growth inhibition (GI50) in experiment [7] came out at 39 nM; in [8] (A549 cells), 20 nM; in experiment [9] (lncap cells), 20 nM; in experiment [10], 13 nM; in experiment [11] (HT1080 cells), 30 nM; in experiment [12] (setting [21]), 35 nM. Besides, the GI50 in experiment [13] turned out to be 31 nM; in [14], 51 nM; in experiment [15], 41 nM; in experiment [16] (MCF-7 cells) it was 20 nM; in experiment [17] (MOLT-4 cells), 70 nM; in experiment [18] (DU145 cells), 70 nM. In addition, the GI50 was determined as 23 nM in experiment [19] and 40 nM in [20] (BGC-823 cells).

The record behind these values is patent US10065990B2, “Cyclic peptide compound, and preparation method, pharmaceutical composition and use thereof” (HANGZHOU GUANYU BIO-MEDICAL CO., LTD, priority 2013, dated 2018).
